The values below come from patent US20040110821A1, “GAL3 receptor antagonists for the treatment of affective disorders” (priority 2002, published 2004).

The series relates to Male albino Sprague-Dawley rats. As to the kind of experiment: Rat Social Interaction Test (SIT). The series is classed as in vivo. To be noted: for overall profile in the Social Interaction Test (conclusion in words): rat, in vivo. As to the method: Rats were allowed to acclimate to the animal care facility for 5 days and were housed singly for 5 days prior to testing. Animals were handled for 5 minutes per day. The design and procedure for the Social Interaction Test was carried out as previously described by Kennett, et al. (1997). On the test day, weight matched pairs of rats (±5%), unfamiliar to each other, were given identical treatments and returned to their home cages. Animals were randomly divided into 5 treatment groups, with 5 pairs per group, and were given one of the following i.p. treatments: Example 92 (10, 30 or 100 mg/kg), vehicle (1 ml/kg) or chlordiazepoxide (5 mg/kg). Dosing was 1 hour prior to testing. Rats were subsequently placed in a white perspex test box or arena (54×37×26 cm), whose floor was divided up into 24 equal squares, for 15 minutes. An air conditioner was used to generate background noise and to keep the room at approximately 74° F. All sessions were videotaped using a JVC camcorder (model GR-SZ1, Elmwood Park, N.J.) with either TDK (HG ultimate brand) or Sony 30 minute videocassettes. All sessions were conducted between 1:00-4:30 P.M. Active social interaction, defined as grooming, sniffing, biting, boxing, wrestling, following and crawling over or under, was scored using a stopwatch (Sportsline model no. 226, 1/100 sec. discriminability). The number of episodes of rearing (animal completely raises up its body on its hind limbs), grooming (licking, biting, scratching of body), and face washing (i.e. hands are moved repeatedly over face), and number of squares crossed were scored. Passive social interaction (animals are lying beside or on top of each other) was not scored. All behaviors were assessed later by an observer who was blind as to the treatment of each pair. At the end.of each test, the box was thoroughly wiped with moistened paper towels.
Male albino Sprague-Dawley rats (Taconic Farms, N.Y.) were housed in pairs under a 12 hr light dark cycle (lights on at 0700 hrs.) with free access to food and water.
Example 92 was dissolved in 100% DMSO (Sigma Chemical Co., St. Louis, Mo.). Chlordiazepoxide (purchased from Sigma Chemical Co., St. Louis, Mo.) was dissolved in double distilled water. The vehicle consisted of 50% DMSO (v/v). All drug solutions were made up 10 minutes prior to injection and the solutions were discarded.
Example 34 was dissolved in 5% lactic acid, v/v. The vehicle consisted of 100% dimethylacetamide (DMA) and this was used to make up all drug solutions. All drug solutions were made up fresh each day and any unused solutions were discarded at the end of the test day. The volume of drug solution administered was 1 ml/kg.
The social interaction data (time interacting, rearing and squares crossed) were subjected to a randomized, one-way ANOVA and post hoc tests conducted using the Student-Newman-Keuls test. The data were subjected to a test of normality (Shapiro-Wilk test). The data were analyzed using the GBSTAT program, version 6.5 (Dynamics Microsystems, Inc., Silver Spring, Md., 1997). All data are presented as means ±S.E.M.

For the compound `Cc1ccc(Nc2cc(N3CCCCC3)nc(N3CCN(c4ncccc4C(F)(F)F)CC3)n2)cc1` [Example 34], the “overall profile in the Social Interaction Test (conclusion in words)” value is on record as “produces an anxiolytic-like action in the social interaction test”.

As to `O=C1C(=Nc2cccc(C(F)(F)F)c2)c2ccccc2N1c1ccccc1` [Example 92, 1-PHENYL-3-[[3-(TRIFLUOROMETHYL)PHENYL]IMINO]-1,3-DIHYDRO-2H-INDOL-2-ONE], the “overall profile in the Social Interaction Test (conclusion in words)” value is “has the profile of an anxiolytic-like drug in the Social Interaction Test”. Besides, the “ataxia or sedation accompanying decreased locomotor activity” value (100 mg/kg i.p.) is “did not appear to be accompanied by ataxia or sedation”. Also, the “social interaction of familiar cage mates” value (familiar cage mates, another study (not reported)) was “no significant increase in interaction”. In addition, the “stereotypes or aggressive behaviors” value (i.p., Social Interaction Test) was “did not elicit stereotypes or produce aggressive behaviors”.
